The text below walks through data of patent US20250177269A1, “COMPOSITION FOR PROMOTING HAIR SPROUTING OR HAIR GROWTH CONTAINING A THYMOL ESTER-BASED COMPOUND” (AMOREPACIFIC CORPORATION, priority 2023, published 2025).

The test system of the experiment is dermal papilla (DP) cells and outer root sheath (ORS) cells. The experiment can be described thus: "Two-Cell Assemblage" Assay, hair growth-promoting efficacy. The experiment is classed as cell-based. Particulars: 10 ppm, 20 ppm; cultured for 5 days; vs. control. How it is done:
The hair growth-promoting efficacy of 3,4,5-trimethoxycinnamate thymol ester (Melasolv) according to the concentration (10 ppm, 20 ppm) was evaluated using “Two-Cell Assemblage” Assay (“Two-Cell Assemblage” Assay: A Simple in vitro Method for Screening Hair Growth-Promoting Compounds) (Front Cell Dev Biol. 2020 Nov. 24; 8:581528).
The “Two-Cell Assemblage” Assay is an evaluation method that mimics the hair growth of actual hair follicles by co-culturing dermal papilla (DP) cells and outer root sheath (ORS) cells that constitute the hair follicle. That is, the length growth of the “Two-Cell Assemblage” structure has a mechanism similar to that of the actual hair follicle growth, and is being used as a new method of evaluating hair growth-promoting efficacy.
5,000 hair follicle dermal papilla cells were seeded on an ultra-low attachment 96-well plate to form 3D spheroids. After 24 hours, 5,000 outer root sheath cells (Kyungpook National University Industry-Academic Cooperation Foundation) were added together with the test substance to create a “Two-Cell assemblage” structure and cultured for 5 days under 37° C., 5% CO2 conditions. After culturing for 5 days, the length growth was measured using a microscope (OLYMPUS, SZX16) and shown in the Figure (* p<0.05, ** p<0.01, *** p<0.001 vs. control).

The structures appear in SMILES notation.

As for `COc1cc(/C=C/C(=O)Oc2cc(C)ccc2C(C)C)cc(OC)c1OC` [Melasolv, (5-methyl-2-propan-2-ylphenyl) (E)-3-(3,4,5-trimethoxyphenyl) prop-2-enoate], the “length growth of the "Two-Cell Assemblage" structure (hair growth efficacy)” value is on record as “significant level of length growth-promoting efficacy”.
